Source: US10428017B2, “Modulators of the cystic fibrosis transmembrane conductance regulator protein and methods of use” (AbbVie S.à.r.l., priority 2017, dated 2019)
Like-named read-outs stand apart in the source and are kept apart here.

Biological target: T1, F508delCFTR (Homo sapiens, UniProt P13569, DEL508-508)
T1 construct: expressed in transfected cells; host or cells: CFBE4lo-F508delCFTR-HRP cells (human lung derived epithelial cell line, doxycycline-inducible)
Assay: Cell Surface Expression-Horse Radish Peroxidase (CSE-HRP) Assay
Format: cell-based
Conditions: for EC50: CFBE4lo-F508delCFTR-HRP cells, 18-24 hours at 33° C.; for Emax / Maximum % activity (with co-corrector): maximum at any tested concentration (up to 20 μM), normalized to on-plate positive control (2 μM co-corrector); for Maximum % activity (with co-corrector): with co-corrector 2 μM
Description: Cell Surface Expression-Horse Radish Peroxidase (CSE-HRP) Assay
A cellular assay for measuring the F508delCFTR cell surface expression after correction with test compounds either without or with a co-corrector (2 μM of 3-[(2R,4R)-4-({[1-(2,2-difluoro-1,3-benzodioxol-5-yl)cyclopropyl]carbonyl}amino)-7-methoxy-3,4-dihydro-2H-chromen-2-yl]benzoic acid), was developed in human lung derived epithelial cell line (CFBE4lo−) (Veit G et al, (2012) Mol Biol Cell. 23(21): 4188-4202). The development was achieved by expressing the F508delCFTR mutation along with a horseradish peroxidase (HRP) in the fourth exofacial loop, and then measuring the HRP activity using luminescence readout from these cells, CFBE4lo-F508delCFTR-HRP, that were incubated overnight with the test corrector compounds, either without or with the co-corrector. For this primary assay, the CFBE4lo-F508delCFTR-HRP cells were plated in 384-well plates (Greiner Bio-one; Cat 781080) at 4,000 cells/well along with 0.5 μg/mL doxycycline to induce the F508delCFTR-HRP expression and further incubated at 37° C., 5% CO2 for 72 hours. The test compounds were then added either without or with a co-corrector at the required concentrations and further incubated for 18-24 hours at 33° C. The highest concentration tested was 20 μM with an 8-point concentration response curve using a 3-fold dilution in both the test compound without or with the co-corrector. Three replicate plates were run to determine one EC50. All plates contained negative controls (dimethyl sulfoxide, DMSO) and positive control (2 μM of 3-[(2R,4R)-4-({[1-(2,2-difluoro-1,3-benzodioxol-5-yl)cyclopropyl]carbonyl}amino)-7-methoxy-3,4-dihydro-2H-chromen-2-yl]benzoic acid) as well as on-plate concentration response of the positive control. Post incubation, the plates were washed 5× times with Dulbecco's phosphate buffered saline (DPBS), followed by the addition of the HRP substrate, luminol (50 μL), and measuring the HRP activity using luminescence readout on EnVision® Multilabel Plate Reader (Perkin Elmer; product number 2104-0010). The raw counts from the experiment were analyzed using Accelrys® Assay Explorer v3.3.
Z′ greater than 0.5 was used as passing quality control criteria for the plates.
The Z′ is defined as: 1−[3*SDPositive Control+3*SDNegative Control/Absolute(Meanpostivie Control−MeanNegative Control)] wherein “SD” is standard deviation.
The % activity measured at each of the 8 test concentrations of the test compound added either without or with a co-corrector (2 μM of 3-[(2R,4R)-4-({[1-(2,2-difluoro-1,3-benzodioxol-5-yl)cyclopropyl]carbonyl}amino)-7-methoxy-3,4-dihydro-2H-chromen-2-yl]benzoic acid) was normalized to the on-plate positive control using the following formulae: % activity(Test compound without co-corrector)=[(test compound without co-corrector response−DMSO response)/(positive control response−DMSO response)]*100 % activity(Test compound with co-corrector)=[(test compound with co-corrector response−DMSO response)/(positive control response−DMSO response)]*100
The maximum % activity achieved for the test compound either without or with a co-corrector at any tested concentration is presented in Table 1 along with the respective EC50's calculated using the following general sigmoidal curve with variable Hill slope equation (described as Model 42 in the Accelrys® Assay Explorer v3.3 software): y=(a−d)/(1+(x/c)^b)+d
General sigmoidal curve with concentration, response, top, bottom, EC50 and Hill slope. This model describes a sigmoidal curve with an adjustable baseline, a. The equation can be used to fit curves where response is either increasing or decreasing with respect to the independent variable, “x”.
“x” is a concentration of drug under test.
“a” is the maximum response, and “d” is the minimum response
“c” is the inflection point (EC50) for the curve. That is, “y” is halfway between the lower and upper asymptotes when x=c.
“b” is the slope-factor or Hill coefficient. […]

[1] = test compound without co-corrector, HRP luminescence readout, read-out: EC50 (without co-corrector)
[2] = test compound without co-corrector
[3] = with co-corrector 2 μM 3-[(2R,4R)-4-({[1-(2,2-difluoro-1,3-benzodioxol-5-yl)cyclopropyl]carbonyl}amino)-7-methoxy-3,4-dihydro-2H-chromen-2-yl]benzoic acid, read-out: EC50 (with co-corrector)

T1 sequence (P13569 with tags, fused parts or gaps DEL508-508): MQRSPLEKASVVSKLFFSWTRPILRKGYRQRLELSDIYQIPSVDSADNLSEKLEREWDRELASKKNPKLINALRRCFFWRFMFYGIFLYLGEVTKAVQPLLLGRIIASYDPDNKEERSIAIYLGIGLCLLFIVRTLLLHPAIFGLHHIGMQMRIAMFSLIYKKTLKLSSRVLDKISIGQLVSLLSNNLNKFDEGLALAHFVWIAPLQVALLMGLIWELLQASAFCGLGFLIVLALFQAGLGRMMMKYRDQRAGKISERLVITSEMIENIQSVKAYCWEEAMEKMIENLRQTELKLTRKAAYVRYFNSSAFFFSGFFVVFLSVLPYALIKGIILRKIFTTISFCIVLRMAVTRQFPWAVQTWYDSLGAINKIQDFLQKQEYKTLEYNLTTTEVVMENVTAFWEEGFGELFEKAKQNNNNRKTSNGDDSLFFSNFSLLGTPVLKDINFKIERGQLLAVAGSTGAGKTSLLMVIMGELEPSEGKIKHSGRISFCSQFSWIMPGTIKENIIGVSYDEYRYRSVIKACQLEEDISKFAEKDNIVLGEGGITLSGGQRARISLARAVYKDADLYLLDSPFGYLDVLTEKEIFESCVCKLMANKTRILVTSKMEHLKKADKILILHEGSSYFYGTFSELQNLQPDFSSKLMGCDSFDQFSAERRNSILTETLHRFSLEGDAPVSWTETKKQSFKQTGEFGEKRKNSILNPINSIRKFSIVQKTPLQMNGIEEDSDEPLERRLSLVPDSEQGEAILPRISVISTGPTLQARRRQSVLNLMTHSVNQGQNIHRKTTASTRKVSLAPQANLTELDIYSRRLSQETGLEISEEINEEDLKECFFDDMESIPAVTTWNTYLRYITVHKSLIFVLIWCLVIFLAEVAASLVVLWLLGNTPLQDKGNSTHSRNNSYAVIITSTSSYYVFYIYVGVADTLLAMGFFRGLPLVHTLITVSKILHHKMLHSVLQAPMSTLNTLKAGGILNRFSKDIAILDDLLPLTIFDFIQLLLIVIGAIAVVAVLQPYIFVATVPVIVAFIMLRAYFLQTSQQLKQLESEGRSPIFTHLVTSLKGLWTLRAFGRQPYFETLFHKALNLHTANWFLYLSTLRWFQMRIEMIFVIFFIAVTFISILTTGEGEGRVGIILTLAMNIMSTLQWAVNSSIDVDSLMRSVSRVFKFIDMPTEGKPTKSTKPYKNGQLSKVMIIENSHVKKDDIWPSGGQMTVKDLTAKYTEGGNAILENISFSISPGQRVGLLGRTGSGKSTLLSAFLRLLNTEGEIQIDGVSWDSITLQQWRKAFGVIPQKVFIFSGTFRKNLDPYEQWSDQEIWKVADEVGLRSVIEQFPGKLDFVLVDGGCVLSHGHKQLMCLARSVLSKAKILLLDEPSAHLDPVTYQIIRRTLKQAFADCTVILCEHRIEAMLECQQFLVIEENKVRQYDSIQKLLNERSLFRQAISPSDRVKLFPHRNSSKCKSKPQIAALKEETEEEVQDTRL

| EC50 [1] | Emax [2] | EC50 [3] | Maximum % activity (with co-corrector) | Compound |
| --- | --- | --- | --- | --- |
| 3 to 10 µM | 50 to 150% | 3 to 10 µM | ++ (≥150 and <350) | COc1ccc(Br)c2c1[C@@H](C(=O)NS(=O)(=O)c1cccc3cnn(C)c13)CCO2 [Example 69, (4S)-8-bromo-5-methoxy-N-(1-methyl-1H-indazole-7-sulfonyl)-3,4-dihydro-2H-1-benzopyran-4-carboxamide] |
| ≥ 10 µM | < 50% | 3 to 10 µM | ++ (≥150 and <350) | COc1cccc2c1CCOC2C(=O)NS(=O)(=O)c1cccc2ccccc12 (centres unmarked) [Example 110, 5-methoxy-N-(naphthalene-1-sulfonyl)-3,4-dihydro-1H-2-benzopyran-1-carboxamide] |
| 3 to 10 µM | ≥ 150% | < 3 µM | +++ (≥350) | COc1ccc(C2CCC2)c2c1C(C(=O)NS(=O)(=O)c1cccn3nccc13)CO2 (centres unmarked) [Example 88, 7-cyclobutyl-4-methoxy-N-(pyrazolo[1,5-a]pyridine-4-sulfonyl)-2,3-dihydro-1-benzofuran-3-carboxamide] |
| – | – | 3 to 10 µM | ++ (≥150 and <350) | O=C(NS(=O)(=O)c1cccc2ccccc12)C1OCCc2ccc(OC(F)(F)F)cc21 (centres unmarked) [Example 109, N-(naphthalene-1-sulfonyl)-7-(trifluoromethoxy)-3,4-dihydro-1H-2-benzopyran-1-carboxamide] |
| < 3 µM | ≥ 150% | < 3 µM | +++ (≥350) | COc1ccc(C2CCC2)c2c1C(C(=O)NS(=O)(=O)c1cccc3c1CCCN3)CC(C)(C)O2 (centres unmarked) [Example 93, 8-cyclobutyl-5-methoxy-2,2-dimethyl-N-(1,2,3,4-tetrahydroquinoline-5-sulfonyl)-3,4-dihydro-2H-1-benzopyran-4-carboxamide] |
| 3 to 10 µM | ≥ 150% | < 3 µM | +++ (≥350) | COc1ccc(C2CCC2)c2c1C(C(=O)NS(=O)(=O)c1cccc3nc(C)ccc13)CCO2 (racemic) [Example 75, 8-cyclobutyl-5-methoxy-N-(2-methylquinoline-5-sulfonyl)-3,4-dihydro-2H-1-benzopyran-4-carboxamide] |
| < 3 µM | ≥ 150% | < 3 µM | +++ (≥350) | COc1ccc(Br)c2c1[C@H](C(=O)NS(=O)(=O)c1cccc3ncccc13)CC(C)(C)O2 [Example 72, (4R)-8-bromo-5-methoxy-2,2-dimethyl-N-(quinoline-5-sulfonyl)-3,4-dihydro-2H-1-benzopyran-4-carboxamide] |

The remaining lines, values behind:

| Compound | EC50 [1] | Emax [2] | EC50 [3] | Maximum % activity (with co-corrector) |
| --- | --- | --- | --- | --- |
| COc1ccc(C2CCC2)c2c1[C@H](C(=O)NS(=O)(=O)c1cccc3ncccc13)CCO2 [Example 60, (4R)-8-cyclobutyl-5-methoxy-N-(quinoline-5-sulfonyl)-3,4-dihydro-2H-1-benzopyran-4-carboxamide] | < 3 µM | ≥ 150% | < 3 µM | +++ (≥350) |
| COc1ccc(Br)c2c1C(C(=O)NS(=O)(=O)c1cccc3ccccc13)CCO2 (centres unmarked) [Example 11, 8-bromo-5-methoxy-N-(naphthalene-1-sulfonyl)-3,4-dihydro-2H-1-benzopyran-4-carboxamide] | < 3 µM | ≥ 150% | < 3 µM | +++ (≥350) |
| COc1ccc(Br)c2c1C(C(=O)NS(=O)(=O)c1cccc3ccccc13)CC1(CCCCC1)O2 (centres unmarked) [Example 41, 8-bromo-5-methoxy-N-(naphthalene-1-sulfonyl)-3,4-dihydrospiro[1-benzopyran-2,1′-cyclohexane]-4-carboxamide] | < 3 µM | ≥ 150% | < 3 µM | +++ (≥350) |
| CCC1(C(=O)NS(=O)(=O)c2cccc3ccccc23)COc2cccc(OC)c21 (centres unmarked) [Example 8, 3-ethyl-4-methoxy-N-(naphthalene-1-sulfonyl)-2,3-dihydro-1-benzofuran-3-carboxamide] | 3 to 10 µM | ≥ 150% | < 3 µM | +++ (≥350) |
| COc1ccc(C2CC2)c2c1C(C(=O)NS(=O)(=O)c1cccc3ccccc13)CCO2 (centres unmarked) [Example 64, 8-cyclopropyl-5-methoxy-N-(naphthalene-1-sulfonyl)-3,4-dihydro-2H-1-benzopyran-4-carboxamide] | 3 to 10 µM | ≥ 150% | < 3 µM | +++ (≥350) |
| COc1c(Br)cc(Br)c2c1C(C(=O)NS(=O)(=O)c1cccc3ccccc13)CCO2 (centres unmarked) [Example 12, 6,8-dibromo-5-methoxy-N-(naphthalene-1-sulfonyl)-3,4-dihydro-2H-1-benzopyran-4-carboxamide] | 3 to 10 µM | ≥ 150% | 3 to 10 µM | +++ (≥350) |
| COc1ccc(Cl)c2c1[C@H](C(=O)NS(=O)(=O)c1cccc3ccccc13)CO2 (single isomer, unassigned) [Example 68] | 3 to 10 µM | ≥ 150% | < 3 µM | +++ (≥350) |
| COc1ccc(C2CCC2)c2c1C(C(=O)NS(=O)(=O)c1cccc3ccccc13)CCO2 (centres unmarked) [Example 13, 8-cyclobutyl-5-methoxy-N-(naphthalene-1-sulfonyl)-3,4-dihydro-2H-1-benzopyran-4-carboxamide] | < 3 µM | ≥ 150% | < 3 µM | +++ (≥350) |
| O=C(NS(=O)(=O)c1cccc2ccccc12)C1COc2ccccc21 (centres unmarked) [Example 34, N-(naphthalene-1-sulfonyl)-2,3-dihydro-1-benzofuran-3-carboxamide] | ≥ 10 µM | < 50% | ≥ 10 µM | + (<150) |
| COc1ccc(C(F)(F)F)c2c1[C@@H](C(=O)NS(=O)(=O)c1cccc3ccccc13)CCO2 [Example 57, (4S)-5-methoxy-N-(naphthalene-1-sulfonyl)-8-(trifluoromethyl)-3,4-dihydro-2H-1-benzopyran-4-carboxamide] | 3 to 10 µM | ≥ 150% | < 3 µM | +++ (≥350) |
| COc1ccc(Cl)c2c1[C@@H](C(=O)NS(=O)(=O)c1cccc3ccccc13)CO2 (single isomer, unassigned) [Example 67] | 3 to 10 µM | ≥ 150% | < 3 µM | +++ (≥350) |
| COc1ccc2c(c1)C(C(=O)NS(=O)(=O)c1cccc3ccccc13)(c1ccccc1)CC(C)(C)O2 (centres unmarked) [Example 3, 6-methoxy-2,2-dimethyl-N-(naphthalene-1-sulfonyl)-4-phenyl-3,4-dihydro-2H-1-benzopyran-4-carboxamide] | < 3 µM | ≥ 150% | < 3 µM | +++ (≥350) |
